Compared with `CCOC(=O)C=Cc1csc(Nc2ccccc2)n1`, `O=C(Nc1ccccc1C(=O)O)OCc1ccccn1` is higher in melting point: 113 to 118 °C for the first, 172 to 175 °C for the second.

First: Clc1nc(-c2ccc3c(c2)CCO3)nc2ccccc12
Second: CC(c1ccc(-c2ccccc2)c(F)c1)c1cc(CO)no1 (stereo unspecified)
The melting point of the first is higher: 186 to 192 °C for the first, 127 to 128 °C for the second.

First: Cc1c(C)c2c(c(C)c1O)CC[C@](C)(C(=O)N[C@H]1CCOC1=O)O2
Second: Cc1c(C)c2c(c(C)c1OCc1ccccc1)CC(C)(CN1CCN(c3ccccc3)CC1)O2 (stereo unspecified)
The melting point of the first is higher: 195 to 196 °C for the first, 120 to 121 °C for the second.

First: CC(C)(O)C1CCC(CNC(=O)c2cccnc2Oc2cccc(C#N)c2)CC1 (stereo unspecified)
Second: CC1CCN(c2cc3nc(C(C)(C)C)sc3cc2NC(=S)Oc2ccccc2)CC1
The melting point of the first is lower: 129 to 130 °C for the first, 201 to 205 °C for the second.

First: COc1ccc2cc([C@H](C)C(=O)OC[C@](C)(O)CO)ccc2c1
Second: CCOC(=O)c1c(-c2ccc(Cl)s2)ccnc1C(C(=O)OCC)c1cc(OC)cc(OC)n1 (stereo unspecified)
The melting point of the first is lower: 65 to 66 °C for the first, 127 to 132 °C for the second.

First: NC(Cn1cncn1)(Cn1cncn1)c1ccc(Cl)cc1Cl
Second: CC(=O)Nc1c(C(=O)c2ccoc2)[nH]c2cc(Cl)ccc12
The melting point of the first is lower: 135 to 136 °C for the first, 217 to 219 °C for the second.

Compared with `OC1=Cc2ccccc2C=Cc2cc(Br)ccc21`, `Cc1cc(O)c2cccc(OCc3ccccc3)c2n1` is higher in melting point: 148 to 151 °C for the first, 155 to 164 °C for the second.

Compared with `O=C1c2c(Br)cccc2S(=O)(=O)N1CSc1ccccc1`, `O=S1(=O)c2ccccc2Nc2ccc(-c3ccccc3)cc21` is higher in melting point: 174 to 178 °C for the first, 269 to 272 °C for the second.

First: CC(O)C(=O)Nc1ccc(C2=NNC(=O)NC2C)cc1 (stereo unspecified)
Second: CC(C)c1ccccc1-n1c(=O)[nH]c2c(C(N)=O)nc(-c3ccc(-n4ccnc4)cc3)nc21
The melting point of the first is lower: 217 to 225 °C for the first, 232 °C for the second.

First: CCc1noc(-c2ccc(C)cc2)c1-c1ccc(S(N)(=O)=O)cc1
Second: COc1ccc(S(=O)(=O)Nc2ccccc2Nc2cccc(O)c2)cc1
The melting point of the first is higher: 191 °C for the first, 165 to 166 °C for the second.

Compared with `CS(=O)(=O)c1ccc(C2=C(I)C(=O)C3(CCOCC3)O2)cc1`, `CC1(CNC(=O)CC2CN=C(c3cc4cc(Oc5ccc(S(C)(=O)=O)nc5)cc(OC5CCOCC5)c4[nH]3)S2)COC1` (stereo unspecified) is lower in melting point: 210 to 213 °C for the first, 189 to 190 °C for the second.

First: CCn1cc(C(=O)O)c(=O)c2ccc(N3CCNCC3)cc21
Second: CCN1CCc2ccc(Nc3ncc(Cl)c(NC4CCCCNC4=O)n3)cc2CC1 (stereo unspecified)
The melting point of the first is higher: 272 to 275 °C for the first, 232 to 234 °C for the second.

Compared with `Cc1ccccc1-c1cc(-c2ccc(F)cc2)c(C=C(Br)Br)c(C(C)C)n1`, `BrCC(Br)c1ccc(-c2ccccc2)cc1` (stereo unspecified) is lower in melting point: 108 to 110 °C for the first, 79 to 81 °C for the second.

First: O=C1C=CC2=C3OC=CC=C3C=CC2O1 (stereo unspecified)
Second: O=[N+]([O-])C=C1CN=C(c2ccccc2)c2cc(Cl)sc2N1
The melting point of the first is lower: 96 to 98 °C for the first, 154 to 156 °C for the second.

First: O=C(CCCCCN1C(=O)c2ccc([N+](=O)[O-])cc2C1=O)NO
Second: Nc1c([N+](=O)[O-])cc(Br)c2c1CN(CCc1ccccc1)CC2
The melting point of the first is higher: 130 to 132 °C for the first, 120 to 122 °C for the second.

First: CN(C)C1(Cc2ccccc2)CCC(O)(c2cc3ccccc3s2)CC1 (stereo unspecified)
Second: CCC1=C(c2ccccc2)C(c2ccccc2)=C(CC)C1=C(C#N)C#N
The melting point of the first is lower: 128 to 131 °C for the first, 154 to 156 °C for the second.

First: OCc1ccc(-c2ccc(-c3cn([C@H]4CN5CCC4CC5)nn3)cc2)cc1
Second: Cc1ccc(C2CCN(C(=O)Nc3ccc4nc(CN(C(C)C)C(C)C)ccc4c3)CC2)cc1
The melting point of the first is higher: 250 °C for the first, 184 to 186 °C for the second.

Compared with `CCCCc1nc2c(N)nc3ccccc3c2n1CCCNS(=O)(=O)c1cccc2c(N(C)C)cccc12`, `CCCCc1nc2c(N)nc3cc(/C=C/C(=O)OC)ccc3c2n1CC(C)C` is lower in melting point: 216 to 218 °C for the first, 193 to 194 °C for the second.

Compared with `COC(=O)c1c(C)nc2c(c1N(C)C)c1ccccc1n2C`, `CC(=O)c1c(C)nc(C)n1-c1cc(C)c2[nH]c(=O)ccc2c1` is higher in melting point: 106 to 108 °C for the first, 240 to 242 °C for the second.

First: CC(C)CN(CCc1c[nH]c2ccccc12)C(=O)CCCC(=O)O
Second: CCCC(=O)c1cnc2c(OC)cccc2c1Cl
The melting point of the first is higher: 140 to 141 °C for the first, 114 to 116 °C for the second.

Compared with `CC(=O)c1cc(CNS(C)(=O)=O)ccc1O`, `CNC(=O)c1cn(-c2cc3c(=O)n(NS(C)(=O)=O)c(=O)[nH]c3cc2C(F)(F)F)cn1` is higher in melting point: 85 to 86.5 °C for the first, 292 to 295 °C for the second.

Compared with `O=C(O)Cc1c(C(=O)c2ccc(-c3nccs3)cc2)[nH]c2cc(Cl)ccc12`, `O=c1[nH]c2cc(Cl)ccc2c(O)c1-c1cccc(/C=C/c2ccccc2)c1` is higher in melting point: 230 to 233 °C for the first, 320 to 324 °C for the second.

Compared with `Cc1nc(N)c2nc(C)n(CCOC/C=C/c3ccccc3)c2c1C`, `CCOCCc1c(O)n2c3c(=O)n(C)c(=O)n(C)c3nc2n(Cc2ccccc2)c1=O` is higher in melting point: 144 to 145 °C for the first, 156 to 158 °C for the second.

First: c1ccc2c(c1)NCc1nnnn1-2
Second: Cc1csc2nc3cc(F)ccc3n12
The melting point of the first is higher: 149 to 151 °C for the first, 148 °C for the second.

`COC(=S)c1nc(C)c(N)nc1N` and `COC1C=C(C)C(=O)CC(C)(C)C1OC(=O)c1ccc(N)cc1` (stereo unspecified) cannot be ordered by melting point: 158 to 160 °C for the first, 138 to 161 °C for the second.

Compared with `COC(=O)c1cccc(Oc2cccc(-c3nnc(N(Cc4ccc(C(F)(F)P(=O)(O)O)c(Cl)c4)c4ccc(Cl)c(Cl)c4)s3)c2)c1`, `CCC(=O)NS(=O)(=O)c1cccc(-c2cc(-c3nc(-c4ccc(C(F)(F)F)cc4)cc(C(F)(F)F)n3)ccn2)c1` is higher in melting point: 73 to 76 °C for the first, 144 °C for the second.

First: CNC(=S)NCCCCc1nc[nH]c1Br
Second: Cn1c(C(O)CO)cnc1[N+](=O)[O-] (stereo unspecified)
The melting point of the first is higher: 153 to 155 °C for the first, 119 to 121 °C for the second.

First: O=CC1=C(c2ccc(Cl)c(Cl)c2)C2CCC1CC2
Second: O=S1(=O)N=CN(C2CCCCCCC2)c2ccc(Cl)cc21
The melting point of the first is lower: 71 to 71.5 °C for the first, 235 to 237 °C for the second.

First: COc1ccc(CNc2n[nH]c3ncnc(Nc4cccc(Cl)c4)c23)cc1O
Second: CCOc1nc(Cl)nc2c1oc1nc(-c3ccccc3)cc(C)c12
The melting point of the first is higher: 225 to 227 °C for the first, 131 to 132 °C for the second.

First: CC(=O)OCC1OC(C2=NNC(N)(c3ccc(Cl)c(Cl)c3)O2)C(OC(C)=O)C(OC(C)=O)C1OC(C)=O (stereo unspecified)
Second: COCCNC(=O)C1=C(C(=O)Nc2cc(OC3CCCC3)c(Cl)cc2F)CCCC1
The melting point of the first is higher: 180 to 181 °C for the first, 151 °C for the second.

First: COc1cc(C)c(C=C2COCC(=Cc3cc(C)c(OC)cc3C)C2=O)cc1C
Second: CN1C(=O)c2c(Oc3ccccc3O)cc3[nH]c4cc(O)ccc4c3c2C1=O
The melting point of the first is lower: 182 to 184 °C for the first, 200 °C for the second.

First: CC(C)c1ccc(-c2c(Cl)c(CN3C(=O)CCC3=O)nc3sc4c(c23)CCN(Cc2ccccc2)C4)cc1
Second: OC(CCc1cccnc1)CSc1ccc(-c2ccccc2)cc1 (stereo unspecified)
The melting point of the first is higher: 201 to 202 °C for the first, 128 to 130 °C for the second.

First: CNC12CCCCC1CCc1cc(O)ccc12 (stereo unspecified)
Second: O=C1Nc2ccc(F)cc2C(C#CC2CC2)(C(F)(F)F)N1 (racemic)
The melting point of the first is higher: 191 °C for the first, 155 °C for the second.

Compared with `O=C(Nc1ccc(-n2nc(C(F)(F)F)cc2C(F)(F)F)cc1)c1cccc([N+](=O)[O-])c1`, `O=C(Nc1ccc(C(F)(F)F)cc1)N1CC2CSc3cc(Cl)ccc3C2=N1` (stereo unspecified) is lower in melting point: 203 to 204 °C for the first, 188 to 192 °C for the second.

First: N#Cc1[nH]c([N+](=O)[O-])c(Br)c1Br
Second: CCc1nc2c(Cl)cc(F)c(-n3c(=O)cc(C(F)(F)F)[nH]c3=O)c2s1
The melting point of the first is higher: 181 to 186 °C for the first, 178 to 180 °C for the second.

`CCCCCCCCCCCCOc1cccc2c(OCC(O)CO)cccc12` (stereo unspecified) gave a melting point of 143 to 144 °C.

Reference: a melting point compilation (Tetko et al.; mined from patent text by program, amines drawn as free bases though some values may be those of a salt)
